For one data set, the system named is ARPE-19 cells. As to the kind of experiment: Oxidative stress-induced apoptosis (TNF-α/H2O2), Hoechst positive cells. Conditions: for oxidative stress-induced apoptosis, concentration dependence: 10, 30 and 50 nM; for inhibition at 0.03 µM / inhibition at 0.05 µM: Homo sapiens, ARPE-19; for inhibition at 0.05 µM: 50 nM compound. It is filed as cell-based. How it is done:
(§1) The effects of compounds of the invention on apoptotic cell death induced by oxidative stress and on Il-1β induced pro-inflammatory COX-2 gene expression in ARPE-19 cells was measured using the following protocol.
(§2) 72 h grown cells in 6 well plates were serum starved for 8 h, and then oxidative stress was induced with TNF-α/H2O2 (600 μM) for 16 h. Cells were incubated with different concentrations of compound X, compound Z, and compound 48b. Apoptotic cell death was scored by Hoechst positive cells. COX-2 (−830) promoter construct, linked to luciferase reporter gene, was used to transfect ARPE-19 cells by Fugene-6. A β-galactosidase plasmid was co-transfected as transfection control. Transfected cells were serum starved, induced by Il-1β, and incubated with different concentrations of compound X, compound Z, and compound 48b. Luciferase assays were performed using luciferin as substrate.

For the next data set, the system named is COX-2 gene expression. Nature of the data set: Il-1β induced COX-2 promoter luciferase reporter assay in ARPE-19 cells. It is filed as cell-based. Conditions: FIG. 3. How it is done: as §1, §2
The subject of another data set is Rats. As to the kind of experiment: Protection against ischemia reperfusion injury (coronary artery occlusion and reperfusion). It is filed as in vivo, rat. How it is done:
The ability of compound X, administered before reperfusion, to limit myocardial infarct size (IS) was measured using the following protocol.
Rats were anesthetized with ketamine and xylazine and underwent 30 min of coronary artery occlusion and 4 h of reperfusion. Just before reperfusion rats received compound X i.v. (0.03 mg/kg, 0.1 mg/kg or 0.3 mg/kg) or vehicle alone (control). Area at risk (AR) was assessed by blue dye and IS by triphenyltetrazoliumchloride (TTC) staining.

The test system of data set [1] is H9C2 cells. Nature of the data set: Protection against hypoxia-reoxygenation injury (trypan blue uptake, MTT). It counts as cell-based, rat. How it is done:
The ability of compound X to protect cardiomyocytes against hypoxia-reoxygenation injury was measured using the following protocol.
H9C2 cells derived from embryonic rat heart tissue were incubated with compound X (0, 1, 10, 100, or 1000 nM). Cells were subjected to 16 h of hypoxia and 2 h of reoxygenation. Cell death was assessed by trypan blue (TB) uptake and cell viability by MTT (3-(4,5-dimethylthiazol-2-yl)-2,5-diphenyl tetrazolium bromide) assay.

Data set [2] has as its system H9C2 cells. The data set is described as above. It counts as cell-based, rat. The source holds these as a separate data set.
[3] abbreviates: 30 nM compound, TNF-α/H2O2 (600 μM) 16 h, FIG. 1, read-out: inhibition of oxidative stress-induced apoptosis.
Setting [4] is: TNF-α/H2O2 (600 μM) 16 h, FIG. 1.
The mark [5] stands for this setting: i.v. 0.03-0.3 mg/kg, anesthetized rats.

Where two headings read alike, the source gives them in different places.

The text below walks through data of patent US20120122816A1, “COMPOSITIONS AND METHODS FOR ORGAN PRESERVATION” (Resolvyx Pharmaceuticals, Inc., priority 2009, published 2012).

Usually inhibition stands for the share of the control response that was lost under treatment. As a reminder, the viability is a read-out of living cells in per cent, often relative to untreated cells.

Turning to `CC/C=C\C[C@H](O)\C=C/C=C/C=C/[C@H](O)C/C=C\C/C=C\CCC(=O)O` [Compound 48b], in the data set on ARPE-19 cells, the “oxidative stress-induced apoptosis, concentration dependence” value is given as “inhibit oxidative stress-induced apoptosis in a concentration dependent manner”. In the data set with ARPE-19 cells (setting [3]), the inhibition at 0.03 µM was approximately 45%. The compound further displayed an inhibition at 0.05 µM in the data set with ARPE-19 cells (setting [4]) of approximately 80%. Besides, the “expression of pro-inflammatory COX-2” value in the data set on COX-2 gene expression is recorded as “stronger inhibition”.

On to `CC[C@@H](O)/C=C/C=C\C[C@@H](O)/C=C/C=C/C=C\[C@@H](O)CCCC(=O)O` [Compound X], for which the “oxidative stress-induced apoptosis, concentration dependence” value with ARPE-19 cells is on record as “inhibit oxidative stress-induced apoptosis in a concentration dependent manner”. Further, the inhibition at 0.03 µM was approximately 20% in the data set on ARPE-19 cells (setting [3]) and approximately 60% in the data set with ARPE-19 cells (each compound at 30 nM, plus compound 48b, FIG. 2, read-out: combined inhibition of apoptosis upon addition of compound 48b). The same compound returned an inhibition at 0.05 µM with ARPE-19 cells (setting [4]) of approximately 30%. Besides, in the data set with COX-2 gene expression, the “expression of pro-inflammatory COX-2” value is on record as “inhibited”. Moreover, the “myocardial infarct size (IS)” value in the data set on Rats (i.v. 0.03, 0.1 or 0.3 mg/kg just before reperfusion, 30 min occlusion, 4 h reperfusion, FIG. 4) was “dose-dependently limited IS”. Also, the heart rate result in the data set on Rats (setting [5]) is listed as “did not affect”. The mean blood pressure entry with Rats (setting [5]) is reported as “did not affect”. Besides, the “TB (%) (trypan blue positive cells)” value with H9C2 cells [1] (1.0 nM, 16 h hypoxia, 2 h reoxygenation) was found to be 35.5 ± 0.4%; in the data set on H9C2 cells [1] (10 nM, 16 h hypoxia, 2 h reoxygenation), 30.3 ± 0.4%; with H9C2 cells [1] (100 nM, 16 h hypoxia, 2 h reoxygenation), 23.8 ± 0.9%; in the data set on H9C2 cells [1] (1000 nM, 16 h hypoxia, 2 h reoxygenation), 24.1 ± 0.3%. Besides, the viability at 0.001 µM with H9C2 cells [1] (Rattus norvegicus, H9c2, 1.0 nM, 16 h hypoxia, 2 h reoxygenation, read-out: MTT (%) (cell viability)) was determined as 50.1 ± 0.8%. Also, the viability at 0.01 µM in the data set with H9C2 cells [1] (Rattus norvegicus, H9c2, 10 nM, 16 h hypoxia, 2 h reoxygenation, read-out: MTT (%) (cell viability)) amounted to 62.6 ± 1.2%. Besides, the viability at 0.1 µM in the data set with H9C2 cells [1] (Rattus norvegicus, H9c2, 100 nM, 16 h hypoxia, 2 h reoxygenation, read-out: MTT (%) (cell viability)) came out at 74.6 ± 0.9%. Further, the viability at 1 µM in the data set on H9C2 cells [1] (Rattus norvegicus, H9c2, 1000 nM, 16 h hypoxia, 2 h reoxygenation, read-out: MTT (%) (cell viability)) was determined as 70.5 ± 0.5%. In addition, in the data set with H9C2 cells [1] (tested 1-1000 nM), the “concentration of maximal effect” value is given as 100 nM. Besides, the apoptosis result in the data set with H9C2 cells [2] is recorded as “decreased apoptosis”.
